Measurements: ChEMBL document CHEMBL1201862, “PubChem BioAssay data set” (2004)
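Cells were grown in 96-well plates and exposed to each compound for 48 hours at five concentrations; endpoints were interpolated linearly between bracketing concentrations, or set to the highest concentration if not reached. The concentration for 50% growth inhibition is given as GI50.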 The source made the active and inactive calls. Rule as the data show it: active = GI50 up to about 1.1 µM and inactive = higher.

Columns and labels:
Test in all cases: DTP human tumour cell line panel, 48 h
RXF 393 = test system: RXF 393
SF-539 = test system: SF-539
SK-OV-3 = test system: SK-OV-3
EKVX = test system: EKVX
NCI-H460 = test system: NCI-H460
A549 = test system: A549
OVCAR-4 = test system: OVCAR-4
DU-145 = test system: DU-145
UACC-257 = test system: UACC-257
UO-31 = test system: UO-31
NCI/ADR-RES = test system: NCI/ADR-RES
HT-29 = test system: HT-29
SR = test system: SR
TK-10 = test system: TK-10
SF-268 = test system: SF-268
MCF7 = test system: MCF7
RPMI-8226 = test system: RPMI-8226
MDA-MB-435 = test system: MDA-MB-435
HCC 2998 = test system: HCC 2998

SMILES	GI50 (RXF 393)	GI50 (SF-539)	GI50 (SK-OV-3)	GI50 (EKVX)	GI50 (NCI-H460)	GI50 (A549)	GI50 (OVCAR-4)	GI50 (DU-145)	GI50 (UACC-257)	GI50 (UO-31)	GI50 (NCI/ADR-RES)	GI50 (HT-29)	GI50 (SR)	GI50 (TK-10)	GI50 (SF-268)	GI50 (MCF7)	GI50 (RPMI-8226)	GI50 (MDA-MB-435)	GI50 (HCC 2998)
O=C(O)c1cccc(OCCO)c1	> 100 µM (inactive)	> 100 µM (inactive)	> 100 µM (inactive)	> 100 µM (inactive)	> 100 µM (inactive)	> 100 µM (inactive)	> 100 µM (inactive)	> 100 µM (inactive)	> 100 µM (inactive)	> 100 µM (inactive)	> 100 µM (inactive)	> 100 µM (inactive)	> 100 µM (inactive)	> 100 µM (inactive)	> 100 µM (inactive)	> 100 µM (inactive)	> 100 µM (inactive)	> 100 µM (inactive)	
CC(=O)NC(CS/N=N/c1[nH]cnc1C(N)=O)C(=O)O (stereo not drawn)	> 100 µM (inactive)	7.87 µM (inactive)	2.15 µM (inactive)	54.5 µM (inactive)	5.57 µM (inactive)	> 100 µM (inactive)	3.31 µM (inactive)	1.78 µM (inactive)	39.3 µM (inactive)	2.82 µM (inactive)	3.04 µM (inactive)	> 46.9 µM (inactive)	< 0.01 µM (active)	1.75 µM (inactive)	4.29 µM (inactive)	> 46.8 µM (inactive)	1.46 µM (inactive)	10.4 µM (inactive)	4.41 µM (inactive)
COc1cc(S(=O)(=O)Nc2nc(-c3ccc(N4C(=O)C(CC(=O)O)SC4c4ccccc4O)cc3)cs2)ccc1Cl (stereo not drawn)	61.2 µM (inactive)	> 100 µM (inactive)	62.4 µM (inactive)		82.4 µM (inactive)	32 µM (inactive)	34.3 µM (inactive)	> 100 µM (inactive)	88.7 µM (inactive)	> 100 µM (inactive)	> 100 µM (inactive)	90.8 µM (inactive)	99.8 µM (inactive)	> 100 µM (inactive)	> 100 µM (inactive)	42.5 µM (inactive)		87.5 µM (inactive)	9.93 µM (inactive)
c1ccc2c(c1)c(N1CCCCC1)cc1nc3c(cc(N4CCCCC4)c4ccccc43)nc12	> 100 µM (inactive)	> 100 µM (inactive)	> 100 µM (inactive)	> 100 µM (inactive)	> 100 µM (inactive)	> 100 µM (inactive)	> 100 µM (inactive)	> 100 µM (inactive)	> 100 µM (inactive)	> 100 µM (inactive)	> 100 µM (inactive)	> 100 µM (inactive)	> 100 µM (inactive)			> 100 µM (inactive)	> 100 µM (inactive)	> 100 µM (inactive)	> 100 µM (inactive)
CC(C)(C)[Si](C)(C)OCC1OC(n2ccc(=O)[nH]c2=O)C(O[Si](C)(C)C(C)(C)C)[C@]12O[C@@H]2CO (stereo partly drawn)		21.5 µM (inactive)	15.6 µM (inactive)	17 µM (inactive)	14 µM (inactive)	10.9 µM (inactive)	13.6 µM (inactive)	19.4 µM (inactive)	18.2 µM (inactive)	8.85 µM (inactive)	17.4 µM (inactive)	10.6 µM (inactive)	3.61 µM (inactive)	14.8 µM (inactive)	19.4 µM (inactive)	12.1 µM (inactive)	55.3 µM (inactive)	16 µM (inactive)	20.8 µM (inactive)
O=C1c2ccccc2C(=O)N1CCc1ncc[nH]1		> 100 µM (inactive)		> 100 µM (inactive)	> 100 µM (inactive)	> 100 µM (inactive)		> 100 µM (inactive)	> 100 µM (inactive)	> 100 µM (inactive)	> 100 µM (inactive)	> 100 µM (inactive)	> 100 µM (inactive)	> 100 µM (inactive)	> 100 µM (inactive)	> 100 µM (inactive)	> 100 µM (inactive)	> 100 µM (inactive)	
COc1ccc(CNc2nc(NCc3ccc(OC)cc3)nc(NC3CCCCC3)n2)cc1		3.01 µM (inactive)	3.87 µM (inactive)	2.57 µM (inactive)	2.7 µM (inactive)	2 µM (inactive)	10 µM (inactive)	2.9 µM (inactive)	53.8 µM (inactive)	4.32 µM (inactive)	1.8 µM (inactive)	3.46 µM (inactive)	3.29 µM (inactive)	0.975 µM (active)	2.24 µM (inactive)	0.112 µM (active)	3.21 µM (inactive)	0.472 µM (active)	1.11 µM (active)
CC(=O)O[C@@H]1CC2[C@@H](CCC3Cc4nc5c(nc4C[C@@]32C)CC2CC[C@@H]3C(CC[C@@]4(C)C3CC[C@@H]4C(C)CCCC(C)C)[C@@]2(C)C5)C2C[C@@H]3OC4(CCC(C)CO4)C(C)[C@@H]3[C@]21C (stereo partly drawn)	19.9 µM (inactive)	> 100 µM (inactive)	3.04 µM (inactive)	> 100 µM (inactive)	> 100 µM (inactive)	> 100 µM (inactive)	> 100 µM (inactive)	> 100 µM (inactive)	> 100 µM (inactive)		30.3 µM (inactive)	> 100 µM (inactive)	> 100 µM (inactive)	33.1 µM (inactive)	39.3 µM (inactive)	> 100 µM (inactive)	> 100 µM (inactive)	> 100 µM (inactive)	> 100 µM (inactive)
NC(=O)NOCC1NC(=O)NC1=O (stereo not drawn)	> 100 µM (inactive)	> 100 µM (inactive)	> 100 µM (inactive)	> 100 µM (inactive)	> 100 µM (inactive)	> 100 µM (inactive)	> 100 µM (inactive)	> 100 µM (inactive)	> 100 µM (inactive)	> 100 µM (inactive)	> 100 µM (inactive)	> 100 µM (inactive)	> 100 µM (inactive)	> 100 µM (inactive)	> 100 µM (inactive)	> 100 µM (inactive)	> 100 µM (inactive)	> 100 µM (inactive)	
CNc1cc([N+](=O)[O-])ccc1C(=O)N1CCC[C@H]1CO		> 100 µM (inactive)	> 100 µM (inactive)	> 100 µM (inactive)	> 100 µM (inactive)	> 100 µM (inactive)		> 100 µM (inactive)	> 100 µM (inactive)	> 100 µM (inactive)	> 100 µM (inactive)	> 100 µM (inactive)	44.3 µM (inactive)	> 100 µM (inactive)	8.83 µM (inactive)	> 100 µM (inactive)	> 100 µM (inactive)	> 100 µM (inactive)	
O=C1OC(C2=CC(=O)c3ccccc3C2=O)C(Cl)=C1Cl (stereo not drawn)	25.2 µM (inactive)	27.4 µM (inactive)	79.6 µM (inactive)	37.8 µM (inactive)	56.8 µM (inactive)	89.5 µM (inactive)		39.7 µM (inactive)	77.8 µM (inactive)	13.7 µM (inactive)	31.5 µM (inactive)	42 µM (inactive)	24 µM (inactive)	66.7 µM (inactive)	27.2 µM (inactive)	20.9 µM (inactive)	19.5 µM (inactive)	35.6 µM (inactive)	25.1 µM (inactive)
CNc1ccc(C(=O)CC(O)CCC(C)C2OC(=O)CC(O)CC(=O)CC(O)CC(O)CC(O)CC(O)CC3(O)CC(O)C(C(=O)NCCN(C)C)C(CC(OC4OC(C)C(O)C(NC(=O)CN5CCN(C)CC5)C4O)\C=C/C=C\C=C/C=C/C=C/C=C\C=C/C2C)O3)cc1 (stereo not drawn)	> 100 µM (inactive)	37.7 µM (inactive)	> 100 µM (inactive)		4.73 µM (inactive)	2.88 µM (inactive)	14 µM (inactive)	3.22 µM (inactive)	10.7 µM (inactive)	4.34 µM (inactive)	6.9 µM (inactive)	3.85 µM (inactive)	2.48 µM (inactive)	22.5 µM (inactive)	6.64 µM (inactive)	2.36 µM (inactive)		14.9 µM (inactive)	2.55 µM (inactive)
COC(=O)[C@H]1[C@H](OC(=O)[C@@H](OC)c2ccccc2)ON2CC[C@@H](OC(=O)c3ccccc3)[C@H]12	64.4 µM (inactive)		> 100 µM (inactive)	> 100 µM (inactive)	> 100 µM (inactive)	> 100 µM (inactive)	> 100 µM (inactive)	> 100 µM (inactive)	> 100 µM (inactive)	> 100 µM (inactive)	> 100 µM (inactive)	51.3 µM (inactive)	> 100 µM (inactive)	> 100 µM (inactive)	54.3 µM (inactive)	3.83 µM (inactive)	> 100 µM (inactive)	> 100 µM (inactive)	> 100 µM (inactive)
CCOP(=O)(OCC)C(C)(C)N(C)/C(F)=N/C(F)(F)F		> 100 µM (inactive)	> 100 µM (inactive)	> 100 µM (inactive)	> 100 µM (inactive)	> 100 µM (inactive)	> 100 µM (inactive)	> 100 µM (inactive)	> 100 µM (inactive)	> 100 µM (inactive)	> 100 µM (inactive)	> 100 µM (inactive)	> 100 µM (inactive)	> 100 µM (inactive)	> 100 µM (inactive)	> 100 µM (inactive)	> 100 µM (inactive)	> 100 µM (inactive)	> 100 µM (inactive)
CN(C)c1ccc(C(Cc2ccccc2)C2NC(=S)NC2=O)cc1 (stereo not drawn)	> 100 µM (inactive)	47.8 µM (inactive)	76.9 µM (inactive)	> 100 µM (inactive)	99.8 µM (inactive)	> 100 µM (inactive)	28.4 µM (inactive)	> 100 µM (inactive)	> 100 µM (inactive)	> 100 µM (inactive)	> 100 µM (inactive)	> 83.6 µM (inactive)	2.17 µM (inactive)	> 100 µM (inactive)	> 100 µM (inactive)	> 100 µM (inactive)	97.7 µM (inactive)	> 75.7 µM (inactive)	
